Consider 6 compounds from US9443060B2, “Method and system to provide personalized pharmaceutical compositions and dosages” (Volant Holdings GMBH, priority 2009, dated 2016).

The subject of series [1] is hepatic gluconeogenesis (GNG). Further details: endogenous glucose output: unit not given here. As to conditions: cited from earlier work.
The test system of series [2] is hepatic glucose uptake (HGU). Nature of the series: Glucose supply and insulin demand model: effect on hepatic glucose uptake. The class given is in vivo, human. As to conditions: adjustment factor = increase in hepatic glucose uptake at the therapeutic dose of Table 1; T2D. The protocol: (§1) Therapeutic targets of the glucose supply (CE, 1+2; HGU, 3; GNG, 4; IR, 5) and insulin demand (PGU, 6; PIE, 7) model are presented in FIG. 1. To identify quantitative differences between antidiabetic agents on CE, HGU, GNG, IR, PGU, and PIE, multidatabase searches (Cochrane Central Register of Controlled Trials and Cochrane Register of Systematic Reviews, Embase, OVID Healthstar, OVID Journals, and PubMed) were conducted cross-referencing title and keywords for all selected antidiabetic therapies and their respective targets.
(§2) Alpha-glucosidase, biguanide, and thiazolidinedione (TZD) studies with long-term, pre-post design at maximal therapeutic doses were identified to simulate chronic administration. To maintain consistency with cardiovascular trials and accommodate known influences of hyperglycemia and hyperinsulinemia on the respective targets,^13-16 studies including patients with HbA1c in the range of 6-8% and body mass index (BMI)≧30 kg/m^2 were preferentially selected. In the event multiple studies were available to identify the effect of an agent on a therapeutic target, the mean percent change was used. Conversely, if there was evidence that an agent would elicit a response on a given target but no mathematical representation of the difference was provided, conservative estimates consistent with the scale of other agents and the degree of glucose regulation were instituted to best represent the expected effect. Individual agents were then characterized for the 24 h percent change from baseline for CE, HGU, GNG, IR, PGU, and PIE. Carbohydrate exposure was determined as the combined effect of caloric intake and intestinal carbohydrate absorption. Hepatic glucose uptake was defined as the reported value obtained immediately following oral glucose loading. Because GNG is known to be enhanced in the fasting state and persistent throughout the prandial phase,^17,18 effect was determined during the fasting state and considered equivalent throughout the prandial phase. For studies evaluating fasting glucose and insulin concentrations, an index of IR was determined by homeostasis model assessment of insulin resistance (HOM-AIR) using the following formula: Insulin (mU/liter)×Glucose (mmol)/22.5.^19 To account for known differences in secretory and uptake dynamics during the fasting and prandial phases, studies identifying the impact of therapies during the fasting state (or simulated hyperinsulinemic euglycemic clamp) and prandial phase (or oral glucose load insulin clamp) were specifically identified for changes in PGU (glucose infusion rate) and PIE (insulin concentrations) according to Equation (1): […]
(§3) For sulfonylurea and insulin-based therapies, insulin concentration time profiles were obtained and superimposed on the baseline 24 h insulin concentration time profile of T2D patients (FIG. 2) to calculate the increase in PIE (trapezoidal rule).^20 Calculated increases in incremental and cumulative insulin exposure were correlated to known insulin dose-response effects on HGU, GNG, and PGU (FIG. 3),^18,21 according to the equation y=mx+b. Twenty-four-hour increases in HGU, PGU, and PIE and decreases in GNG were compared to baseline values and percent change calculated.
(§4) With alpha-glucosidase, biguanide, TZD, secretagogue, and insulin therapies characterized for their respective impacts on CE, HGU, GNG, IR, PIE, and PGU, identification of their effect on the glucose supply (decrease in CE, increase in HGU, decrease in GNG, decrease in IR) and insulin demand (increase in PIE, increase in PGU) dynamic was assessed according to Equation (2), which provides the SD ratio according to the invention: […]

For series [3], the system named is hepatic gluconeogenesis (GNG). Nature of the series: Glucose supply and insulin demand model: effect on hepatic gluconeogenesis. The class given is in vivo, human. The settings on record: adjustment factor = decrease in hepatic gluconeogenesis at the therapeutic dose of Table 1; T2D. The protocol: as §1, §2, §3, §4
Series [4] deals with peripheral glucose uptake (PGU). The series is described as follows: Glucose supply and insulin demand model: effect on peripheral glucose uptake. It counts as in vivo, human. The settings on record: adjustment factor = increase in peripheral glucose uptake at the therapeutic dose of Table 1; T2D. The protocol:
as §1, §2, §3, §4

Series [5] relates to peripheral insulin exposure (PIE). Nature of the series: Glucose supply and insulin demand model: effect on peripheral insulin exposure. It counts as in vivo, human. As to conditions: adjustment factor = increase in peripheral insulin exposure at the therapeutic dose of Table 1; T2D. The protocol: as §1, §2, §3, §4
Twenty-four-hour steady state insulin concentration time curves were superimposed on the baseline secretion profile of the standard T2D patient.

Another series deals with insulin resistance (IR). The series is described as follows: Glucose supply and insulin demand model: effect on insulin resistance. It counts as in vivo, human. The settings on record: adjustment factor = decrease in insulin resistance at the therapeutic dose of Table 1; T2D. As for the experimental part:
as §1, §2, §3, §4

The test system of the next series is metabolic syndrome. The series is described as follows: FS index / neural net model of cardiovascular risk in metabolic syndrome patient populations. The class given is in vivo, human. The protocol:
The FS index of MS comprises the following parameters: Fasting Blood Glucose, Fasting Insulin, HBA1c, BMI, AST, Triglycerides, Glucose Supply-Demand (S/D) index, and in certain cases, Proinsulin. Each parameter was mathematically arranged to increase as MS worsened, and weighted approximately equally in the prediction of MS progression and risk for CV events. […] FS index values were calculated from serial laboratory and clinical data over timeframes ranging between 2 and 10 years.
Neural Net Models and Data Display Methods. […] Unless otherwise stated, standard deviations (z-score) vs. time are presented in the individual and mean population graphics.
For purposes of analysis, clinical and laboratory parameters were converted into modified z-scores as follows: • A mean normal value (described as “mean” in the following) was selected based on review of literature and various published laboratory compendia. The Standard Deviation (SD) of each parameter was set to one half of the normal range. The modified z-score is calculated as follows: z=(Patient value−“mean”)/SD • On the graphs, the z-score is reported as the number of SD.
The FS index considered the following: Fasting Blood Glucose, Fasting Insulin, HBA1c, BMI, AST, Triglycerides, Glucose Supply-Demand (S/D) index, and in some cases Proinsulin. […] Each of these parameters was mathematically arranged to increase as Metabolic Syndrome worsened, and weighted approximately equally in the prediction of Metabolic Syndrome progression and risk for CV events.
The FS index was then applied to well-studied patient populations using a neural net model.
[formula] Where FBG is Fasting Blood Glucose in mg/dl and normal value is 100 mg/dl TG is Triglycerides in mg/dl normal value is <150 HBA1c is hemoglobin A1c in %, normal value is <6% BMI is body mass index as kg/m2 where a normal value is 20 and obese begins above 25 AST is Aspartate Transferase also called SGOT in IU/liter and a normal value is 5-50 FB insulin is fasting Blood insulin concentration in nmol/liter, a normal value is 4.0

Series [6] concerns carbohydrate exposure (CE). Nature of the series: Glucose supply and insulin demand model: effect on carbohydrate exposure. It counts as in vivo, human. Further details: scale not given here. The settings on record: adjustment factor = decrease in carbohydrate exposure at the therapeutic dose of Table 1; T2D. As for the experimental part: as §1, §2, §3, §4
The conditions of series [7]: initiation of insulin in T2D patients; duration and intensity dependent; cited from earlier work.

Take `OCCN1C[C@H](O)[C@@H](O)[C@H](O)[C@H]1CO` [Miglitol]: in series [1] (Schnack, miglitol 300 mg/day, eight weeks, euglycemic clamp, poorly controlled T2D, placebo 0.35±0.17, not significant), the hepatic glucose output is 0.37±0.15 mg/kg^−1/min^−1. Besides, in series [1] (Sels, miglitol 200 mg at bedtime for 1 week, T2D), the “change in hepatic glucose production” value is on record as “not associated with a change in hepatic glucose production”. For the same compound, the HGU uptake in [2] was 0.15. Besides, the GNG inhibition in series [3] is given as 0.05. The compound further came in with a PGU in series [4] of 0.25. In series [5], the PIE amounted to 0.05. For the same compound, in the series with insulin resistance (IR), the IR reduction was 0.15.
Regarding `N[C@@H](CC(=O)N1CCn2c(nnc2C(F)(F)F)C1)Cc1cc(F)c(F)cc1F` [Sitagliptin], the “FS index response to treatment” value in the series on metabolic syndrome (normal 20-50, 61 T2D on metformin, 100 RYGB, 18 Brake, 33 exenatide, 12 sitagliptin patients) was “beneficial response to the diabetes component of metabolic syndrome”. Further, the “other parameters of metabolic syndrome (BMI/weight, HBSD, lipids, NAFLD, blood pressure, insulin)” value in the series on metabolic syndrome (same patient populations as FS index) was “weight slowly increases or stays the same, lipid abnormalities do not resolve and NAFLD abnormalities do not resolve”.
Regarding Insulin Lispro Protamine, the HGU uptake in series [2] is 0.23. In series [3], this compound gave a GNG inhibition of 0.10. The compound also came in with a PGU in series [4] of 0.40. The same compound registered a PIE in series [5] of 0.28. In the series on insulin resistance (IR), this compound gave an IR reduction of 0.00. The CE inhibition in [6] turned out to be 0.00.
Take Insulin Regular: the HGU uptake in series [2] is given as 0.21. The compound also yielded a GNG inhibition in series [3] of 0.11. The compound also came in with a PGU in series [4] of 0.64. Moreover, the PIE in series [5] amounted to 0.33. Moreover, the IR reduction in the series with insulin resistance (IR) worked out at 0.00. The compound also showed a CE inhibition in series [6] of 0.00.
Insulin Ultralente displayed an HGU uptake in series [2] of 0.17. The compound further returned a GNG inhibition in series [3] of 0.08. The compound also returned a PGU in [4] of 0.38. This compound also showed a PIE in [5] of 0.24. Also, in the series on insulin resistance (IR), the IR reduction was 0.00. The CE inhibition in series [6] worked out at 0.00.
For insulin, the “plasma C5:^2H2O ratio” value in [1] (Gastaldelli, euglycemic hyperinsulinemic clamp, plasma insulin 113±6 μU/ml, T2D, basal 0.60±0.02) is 0.25±0.02. In series [1] (Gastaldelli, euglycemic hyperinsulinemic clamp, plasma insulin 113±6 μU/ml, T2D, basal 15.2±0.4), the endogenous glucose output is reported as 7.1±0.9. Moreover, the weight gain in series [7] is listed as 5-10%.
